{
  "source": "paper PMC4992173",
  "about": "“Divergent synthesis and identification of the cellular targets of deoxyelephantopins” (Nature Communications, 2016)",
  "biological_target": "T1, Protein HGH1 homolog (HGH1) (Homo sapiens, UniProt Q9BTY7)",
  "T1 construct": "1,522 proteins were enriched from MCF7 cells by 10 μM probe 24c; endogenous in cells; host or cells: MCF7",
  "T1 sequence (Q9BTY7 whole entry)": "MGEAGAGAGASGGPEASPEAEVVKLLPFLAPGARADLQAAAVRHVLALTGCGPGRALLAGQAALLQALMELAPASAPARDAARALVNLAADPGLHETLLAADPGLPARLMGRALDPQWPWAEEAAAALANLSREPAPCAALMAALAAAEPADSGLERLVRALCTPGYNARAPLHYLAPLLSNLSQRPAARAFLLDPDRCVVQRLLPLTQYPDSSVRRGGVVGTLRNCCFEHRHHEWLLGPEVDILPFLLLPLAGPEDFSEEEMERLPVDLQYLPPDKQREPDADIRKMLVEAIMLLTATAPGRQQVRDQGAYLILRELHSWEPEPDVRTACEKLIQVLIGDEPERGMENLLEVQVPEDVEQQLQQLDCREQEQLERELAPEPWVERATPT",
  "assay": "SILAC competitive profiling with probe 24c in MCF7 lysates: HGH1",
  "format": "binding",
  "settings": "1 h, then 10 µM 24c",
  "text": "In our efforts to determine the direct molecular targets of deoxyelephantopin we first performed a gel-based competitive in situ proteomic profiling assay[41] […] While the greater conformational flexibility of probe 24c could potentially lead to more promiscuous target engagement relatively to deoxyelephantopin, it was favoured based on the fact that an alkyne moiety appended to the rigid scaffold of deoxyelephantopin may hinder some of its interactions. MCF7 cells were pretreated with various concentrations of deoxyelephantopin for 4 h, harvested, lysed and the lysates were treated with the fluorogenic probe 24c-Cy3 (10 μM; Supplementary Fig. 10). […] Furthermore, cells were pretreated with 20 μM concentration of deoxyelephantopin or 24c and the proteomic profiles were compared (Fig. 6b, Supplementary Fig. 11). Multiple bands were detected that were equally competed by both DEP and 24c, thus again confirming that 24c can be used as an acceptable clickable analogue of deoxyelephantopin in pulldown assays. Having established the optimal labelling conditions by SDS–PAGE, we next carried out a mass spectrometry-based competitive profiling assay[42] coupled with the method of stable isotope labelling of amino acids in culture (SILAC)[43]. […]\nvisualization were performed as described above. Images were quantified with ImageJ and kinetics values were calculated using GraphPad Prism (V6.03). […]",
  "data": [
    {"smiles": "C=C(C)C(=O)O[C@H]1CC2=C[C@@H](C/C(C)=C/[C@H]3OC(=O)C(=C)[C@H]13)OC2=O", "note": "[deoxyelephantopin]", "values": [
      {"measurement": "SILAC ratio 20 µM Deoxyelephantopin/DMSO with 24c", "value": 0.20}
    ]}
  ]
}
